Data: patent US20240238274A1, “INHIBITORS OF UBIQUITIN SPECIFIC PEPTIDASE 22 (USP22) AND USES THEREOF FOR TREATING DISEASE AND DISORDERS” (Northwestern University, priority 2021, published 2024)

Columns and labels:
[1] = tested on: Foxp3 in human Treg cells; assay: Foxp3 MFI of human Treg cells treated with Usp22i-S02; assay type: cell-based; details: low doses
Method: FIG. 15: Usp22i-S02 halts Usp22-mediated Foxp3 deubiquitination. A, Graphical representation of Foxp3 MFI change in WT versus 22KO iTreg cells treated with various doses of Usp22i-S02 (n=3). B, Representative histogram of Foxp3 MFI level in iTreg cells as Usp22 inhibitor concentration increases from 0-20 μg/mL. C, Cell survival of iTreg cells treated with various doses of Usp22i-S02 (n=3). D, FOXP3 and USP22 protein level in WT and 22KO mice treated with 10 μg/mL Usp22i-S02. E-F, Graphical and representative data of Foxp3 MFI of human Treg cells treated with various doses of Usp22i-S02 (n=3). G, Graphical representation of Foxp3 MFI in WT, Usp21-null, and Usp22-null Treg cells treated with Usp22i-S02 at 10 μg/mL (n=3). H, FOXP3 and USP22 protein degradation of cycloheximide (10 μg/mL) treated iTreg cells with or without the addition of 10 μg/mL of Usp22i-S02. I-J, Endogenous DUB assay IP in iTreg cells of USP22 with FOXP3 under increasing concentrations of Usp22i-S02. K, Foxp3 mRNA level in iTreg cells as Usp22 inhibitor concentration increases from 0-20 μg/mL (n=3). L, FOXP3 and USP22 level in WT iTreg cells with or without 20 μg/mL Usp22 inhibitor treated with 20 μM MG132. M, Graphical representation of the percentage of decrease of Foxp3 MFI in either WT or Usp22-null nTreg cells placed in low glucose conditions with or without the addition of 10 μg/mL of Usp22i-S02 (n=7-8). […]

Foxp3 in iTreg cells = assay: In vitro dose response and mechanism study in WT, Usp22-null and Usp21-null Treg cells; assay type: cell-based, murine
Method: FIG. 15: Usp22i-S02 halts Usp22-mediated Foxp3 deubiquitination. A, Graphical representation of Foxp3 MFI change in WT versus 22KO iTreg cells treated with various doses of Usp22i-S02 (n=3). B, Representative histogram of Foxp3 MFI level in iTreg cells as Usp22 inhibitor concentration increases from 0-20 μg/mL. C, Cell survival of iTreg cells treated with various doses of Usp22i-S02 (n=3). D, FOXP3 and USP22 protein level in WT and 22KO mice treated with 10 μg/mL Usp22i-S02. E-F, Graphical and representative data of Foxp3 MFI of human Treg cells treated with various doses of Usp22i-S02 (n=3). G, Graphical representation of Foxp3 MFI in WT, Usp21-null, and Usp22-null Treg cells treated with Usp22i-S02 at 10 μg/mL (n=3). H, FOXP3 and USP22 protein degradation of cycloheximide (10 μg/mL) treated iTreg cells with or without the addition of 10 μg/mL of Usp22i-S02. I-J, Endogenous DUB assay IP in iTreg cells of USP22 with FOXP3 under increasing concentrations of Usp22i-S02. K, Foxp3 mRNA level in iTreg cells as Usp22 inhibitor concentration increases from 0-20 μg/mL (n=3). L, FOXP3 and USP22 level in WT iTreg cells with or without 20 μg/mL Usp22 inhibitor treated with 20 μM MG132. M, Graphical representation of the percentage of decrease of Foxp3 MFI in either WT or Usp22-null nTreg cells placed in low glucose conditions with or without the addition of 10 μg/mL of Usp22i-S02 (n=7-8). N, Graphical representation of the percentage of decrease of Foxp3 MFI in WT nTreg cells placed in hypoxic or low amino acid conditions with or without the addition of 10 μg/mL of Usp22i-S02 (n=3-5). G, Two-tailed unpaired t-test comparing within groups was performed to determine statistical significance. K, One-way ANOVA with Dunnet's multiple comparisons between rows relative to control was performed to determine statistical significance. M-N, Two-way ANOVA with Sidak's multiple comparisons between rows was performed to determine statistical significance. All data are presented as mean±stdev. NS, not significant. *P<0.05, **P<0.01, ***P<0.001, ****P<0.0001.
After initial screening, we ran an in vitro dose response study on compound S02, now dubbed Usp22i-S02, in both WT and Usp22-null iTreg cells (FIG. 15A-C).
All nTreg and iTreg cells were plated as described above DMOG (Sigma Catalog #D3695) was administered to the cells in relevant experiments at 1 mM for 24 hours. Oligomycin (Sigma Catalog #75351) was administered at 1 μM to the media of the cells in relevant experiments for 24 hours. Torin 1 (Millipore Catalog #475991) was administered to the relevant cells at 250 nM for 24 hours. FOXP3 protein level was assessed via flow cytometry following […] of treatment of inhibitors described above. In vitro administration of Usp22i-S02 was at 10 ug/mL.

`N#Cc1c2c(c(Nc3ccccc3)n3c1nc1ccccc13)CCCC2` [Chemical S02, 11-anilino-7,8,9,10-tetrahydro-benzimidazo [1,2-b] isoquinoline-6-carbonitrile] was tested, and the “Foxp3 MFI” value [1] was “significantly decreased Foxp3 MFI”, the cell viability [1] was “little effect to cell viability” and the “viability of iTreg cells” value (Foxp3 in iTreg cells; 10 μg/mL) was “little effect on viability”. For the same compound, the “effect on Foxp3 in iTreg cells lacking Usp21” value (Foxp3 in iTreg cells; Usp21-null iTreg cells, 10 μg/mL) was “full effect”, the “Foxp3 MFI and protein level” value (Foxp3 in iTreg cells; WT iTreg cells, 10 μg/mL) was “decreases in Foxp3 MFI and protein level comparable to Usp22-null iTreg cells” and the “Foxp3 stability under glucose starvation” value (Foxp3 in iTreg cells; WT nTreg cells, low glucose, 10 μg/mL) was “significantly diminished Foxp3 stability”. The FOXP3 degradation (Foxp3 in iTreg cells; cycloheximide (CHX) treated iTreg cells) was “enhanced FOXP3 degradation”, the Foxp3 transcription (Foxp3 in iTreg cells; iTreg cells, Foxp3 mRNA, 0-20 μg/mL) was “decreased Foxp3 transcription” and the FOXP3 ubiquitination (Foxp3 in iTreg cells; iTreg cells, endogenous DUB assay IP) was “increased FOXP3 ubiquitination”. The “FOXP3 levels in Treg cells lacking Usp22” value (Foxp3 in iTreg cells; murine Treg cells lacking Usp22, in vivo and in vitro) was “minimal effect on FOXP3 levels”.
